Assay results: PubChem BioAssay AID2060891 (Molecular Pharmacology Branch, DTP, NCI, 2025)
Blank lines part the entries; values can stand above or below the compound they belong to.

Test system: K98450-129-R-PDC complex spheroid growth, percent test/control
Assay: Anticancer human tumor K98450-129-R-PDC patient-derived colon adenocarcinoma cell line growth inhibition [RAS]
Details: for IC50: curve of first compound; for viability, T/C: stronger effect = lower value
Outline: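 Agents were tested in combination matrices in half-log decrements from a top concentration at or near clinical Cmax (10 microM if undetermined). Targets were multi-cell spheroids of tumour lines plus HUVEC and MSC stromal cells.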

[1] = second compound 0.000949 µM, first compound 0.0316 µM
[2] = second compound 0.000949 µM, first compound 0.1 µM
[3] = second compound 0.000949 µM, first compound 0.316 µM
[4] = second compound 0.000949 µM, first compound 1 µM
[5] = second compound 0.000949 µM, first compound 3.16 µM
[6] = second compound 0.000949 µM, first compound 10 µM
[7] = second compound 0.003 µM, first compound 0.0316 µM
[8] = second compound 0.003 µM, first compound 0.1 µM
[9] = second compound 0.003 µM, first compound 0.316 µM
[10] = second compound 0.003 µM, first compound 1 µM
[11] = second compound 0.003 µM, first compound 3.16 µM
[12] = second compound 0.003 µM, first compound 10 µM
[13] = second compound 0.00949 µM, first compound 0.0316 µM
[14] = second compound 0.00949 µM, first compound 0.1 µM
[15] = second compound 0.00949 µM, first compound 0.316 µM
[16] = second compound 0.00949 µM, first compound 1 µM
[17] = second compound 0.00949 µM, first compound 3.16 µM
[18] = second compound 0.00949 µM, first compound 10 µM
[19] = second compound 0.03 µM, first compound 0.0316 µM
[20] = second compound 0.03 µM, first compound 0.1 µM
[21] = second compound 0.03 µM, first compound 0.316 µM
[22] = second compound 0.03 µM, first compound 1 µM
[23] = second compound 0.03 µM, first compound 3.16 µM
[24] = second compound 0.03 µM, first compound 10 µM
[25] = second compound 0.0949 µM, first compound 0.0316 µM
[26] = second compound 0.0949 µM, first compound 0.1 µM
[27] = second compound 0.0949 µM, first compound 0.316 µM
[28] = second compound 0.0949 µM, first compound 1 µM
[29] = second compound 0.0949 µM, first compound 3.16 µM
[30] = second compound 0.0949 µM, first compound 10 µM
[31] = second compound 0.3 µM, first compound 0.0316 µM
[32] = second compound 0.3 µM, first compound 0.1 µM
[33] = second compound 0.3 µM, first compound 0.316 µM
[34] = second compound 0.3 µM, first compound 1 µM
[35] = second compound 0.3 µM, first compound 3.16 µM
[36] = second compound 0.3 µM, first compound 10 µM
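Also: spheroids exposed to agents for seven days before the viability readout.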
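For viability, T/C in this document: luminescence used as a proxy for viable cell amount.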

IC50 (second compound 0.000949 µM): 4.32 µM
IC50 (second compound 0.003 µM): 0.376 µM
IC50 (second compound 0.00949 µM): < 0.0316 µM
IC50 (second compound 0.03 µM): < 0.0316 µM
IC50 (second compound 0.0949 µM): < 0.0316 µM
IC50 (second compound 0.3 µM): < 0.0316 µM
SMILES: CC1(O)CCCC1n1c(=O)c(C(F)F)cc2cnc(NC3CCN(S(C)(=O)=O)CC3)nc21 (centres undefined) + CCn1c(-c2cccnc2C(C)OC)c2c3cc(ccc31)N1CCOC(CC(NC(=O)C(C(C)C)N(C)C(=O)C3(F)CCN(C(=O)C#CC(C)(C)N(C)C)CC3)C(=O)N3CCCC(N3)C(=O)OCC(C)(C)C2)C1
viability, T/C [1]: 76.1%
viability, T/C [2]: 64%
viability, T/C [3]: 68.3%
viability, T/C [4]: 59.1%
viability, T/C [5]: 51.5%
viability, T/C [6]: 44.4%
viability, T/C [7]: 58.2%
viability, T/C [8]: 55.6%
viability, T/C [9]: 52.6%
viability, T/C [10]: 38.6%
viability, T/C [11]: 34.7%
viability, T/C [12]: 31%
viability, T/C [13]: 44.8%
viability, T/C [14]: 38.5%
viability, T/C [15]: 38.3%
viability, T/C [16]: 28.5%
viability, T/C [17]: 29.3%
viability, T/C [18]: 27.1%
viability, T/C [19]: 37.4%
viability, T/C [20]: 41.1%
viability, T/C [21]: 30.1%
viability, T/C [22]: 26.1%
viability, T/C [23]: 31.4%
viability, T/C [24]: 28.1%
viability, T/C [25]: 31.5%
viability, T/C [26]: 31.9%
viability, T/C [27]: 32.2%
viability, T/C [28]: 25.3%
viability, T/C [29]: 29.8%
viability, T/C [30]: 22.7%
viability, T/C [31]: 31.9%
viability, T/C [32]: 33.7%
viability, T/C [33]: 32.6%
viability, T/C [34]: 26.8%
viability, T/C [35]: 29.5%
viability, T/C [36]: 19.6%

IC50 (second compound 0.000949 µM): 2.93 µM
IC50 (second compound 0.003 µM): 0.545 µM
IC50 (second compound 0.00949 µM): < 0.0316 µM
IC50 (second compound 0.03 µM): < 0.0316 µM
IC50 (second compound 0.0949 µM): < 0.0316 µM
IC50 (second compound 0.3 µM): < 0.0316 µM
SMILES: CCC(CC)c1cc(NC2CCC(N)C2)n2nccc2n1 (centres undefined) + CCn1c(-c2cccnc2C(C)OC)c2c3cc(ccc31)N1CCOC(CC(NC(=O)C(C(C)C)N(C)C(=O)C3(F)CCN(C(=O)C#CC(C)(C)N(C)C)CC3)C(=O)N3CCCC(N3)C(=O)OCC(C)(C)C2)C1
viability, T/C [1]: 77.1%
viability, T/C [2]: 72.7%
viability, T/C [3]: 73%
viability, T/C [4]: 59.7%
viability, T/C [5]: 52.3%
viability, T/C [6]: 11.8%
viability, T/C [7]: 65.2%
viability, T/C [8]: 59%
viability, T/C [9]: 56.8%
viability, T/C [10]: 39.4%
viability, T/C [11]: 36.9%
viability, T/C [12]: 10.6%
viability, T/C [13]: 44.4%
viability, T/C [14]: 53.3%
viability, T/C [15]: 48.8%
viability, T/C [16]: 35.4%
viability, T/C [17]: 20.8%
viability, T/C [18]: 11.9%
viability, T/C [19]: 33.7%
viability, T/C [20]: 42.4%
viability, T/C [21]: 40.2%
viability, T/C [22]: 23.1%
viability, T/C [23]: 20.5%
viability, T/C [24]: 10.4%
viability, T/C [25]: 29.9%
viability, T/C [26]: 33.4%
viability, T/C [27]: 38.3%
viability, T/C [28]: 36.3%
viability, T/C [29]: 11.8%
viability, T/C [30]: 9.38%
viability, T/C [31]: 34.1%
viability, T/C [32]: 36.5%
viability, T/C [33]: 39.2%
viability, T/C [34]: 31.3%
viability, T/C [35]: 12.7%
viability, T/C [36]: 9.36%
